# Earlier results in paper PMC8284440, “Toward New Transmission-Blocking Combination Therapies: Pharmacokinetics of 10-Amino-Artemisinins and 11-Aza-Artemisinin and Comparison with Dihydroartemisinin and Artemether” (Antimicrobial Agents and Chemotherapy, 2021).
# Read-outs that look alike come from different tables or passages of the source.
# Columns and labels:
# WI-38 HFLF = test system: WI-38 HFLF; set-up: method as in ref 4 (supplement; main text 62); conditions: Table S2; ref 4 (supplement; main text 62); read-out: Cytotoxicities IC50 WI-38 HFLF; cited from earlier work
# [1] = test system: late stage (IV-V) P. falciparum NF54 gametocytes; set-up: method as in ref 4 (supplement; main text 62); conditions: Table S4, n = 1; ref 4 (supplement; main text 62); read-out: Late stage IC50 (pLDH 72 + 72 h); cited from earlier work
# P. falciparum W2 [2] = test system: P. falciparum W2; set-up: method as in ref 4 (supplement; main text 62); conditions: Table S2, ± SEM; ref 4 (supplement; main text 62); read-out: Antimalarial activities IC50 W2; cited from earlier work
# [3] = test system: Chinese hamster ovary (CHO) cells; conditions: read-out: Cytotoxicity EC50 CHO; MTT, ±SD; ref 1 and 2 (supplement; main text 47, 48); cited from earlier work
# P. falciparum TM91-C235 = test system: P. falciparum TM91-C235; set-up: method as in ref 5 (supplement; main text 63); conditions: CQ and mefloquine resistant; ref 5 (supplement; main text 63); read-out: Antimalarial activities IC50 TM91-C235; cited from earlier work
# P. falciparum W2 [4] = test system: P. falciparum W2; set-up: method as in PMID 25049252; conditions: read-out: activity against W2; cited from earlier work
# P. falciparum W2 [5] = test system: P. falciparum W2; set-up: method as in ref 1 and 2 (supplement; main text 47, 48); conditions: Table S1, ± SEM; ref 1 and 2 (supplement; main text 47, 48); cited from earlier work
# P. falciparum W2 [6] = test system: P. falciparum W2; set-up: method as in ref 5 (supplement; main text 63); conditions: CQ resistant; ref 5 (supplement; main text 63); read-out: Antimalarial activities IC50 W2; cited from earlier work
# murine cerebral malaria = test system: murine cerebral malaria; set-up: method as in PMID 20691118; conditions: prescribed low dose levels; cited from earlier work
# [7] = test system: CamWTC580Y, Cam3.IIC580Y and Cam3.IIRev strains; set-up: method as in PMID 25049252; conditions: read-out: mean IC50 across Cambodian strains; cited from earlier work
# P. falciparum 7G8 = test system: P. falciparum 7G8; set-up: method as in ref 5 (supplement; main text 63); conditions: CQ resistant; ref 5 (supplement; main text 63); read-out: Antimalarial activities IC50 7G8; cited from earlier work
# nonsevere malaria = test system: nonsevere malaria; set-up: method as in PMID 18559649, PMID 30902052, doi:10.4103/jpp.JPP_23_20; conditions: patients with nonsevere malaria; cited from earlier work
# [8] = set-up: method as in PMID 16444785; conditions: cited from earlier work
# [9] = in vivo; cited from earlier work
# [10] = set-up: method as in PMID 16444785, PMID 18559649; conditions: female rats, cited from earlier work
# W2 ring-stage parasites = test system: W2 ring-stage parasites; set-up: method as in PMID 25288088; conditions: not in a concentration-dependent manner; cited from earlier work
Structure (SMILES),IC50 (P. falciparum W2 [2]) [nM],EC50 [3] [nM],IC50 (P. falciparum TM91-C235) [nM],IC50 (P. falciparum W2 [5]) [nM],IC50 (P. falciparum W2 [6]) [nM],IC50 (P. falciparum 7G8) [nM],other results
"C[C@@H]1CC[C@H]2[C@@H](C)C(=O)N[C@@H]3O[C@@]4(C)CC[C@@H]1[C@]32OO4 [11-Aza-artemisinin 11, 11-aza-artemisinin]",6.02 ± 1.81,–,–,–,–,–,IC50 (WI-38 HFLF): > 100000 nM; IC50 [1]: 622 nM
"C[C@H]1[C@@H](O)O[C@@H]2O[C@@]3(C)CC[C@H]4[C@H](C)CC[C@@H]1[C@@]24OO3 [DHA 2, dihydroartemisinin]",0.37 ± 0.11,25200,2.3 ± 0.7,1.74 ± 0.22,2.2 ± 0.8,1.3 ± 0.2,IC50 (P. falciparum W2 [4]): 5.2 nM; Cure of murine cerebral malaria (murine cerebral malaria): no cure; IC50 [7]: 11.2 nM
"C[C@H]1[C@H](N2CCS(=O)(=O)CC2)O[C@@H]2O[C@@]3(C)CC[C@H]4[C@H](C)CC[C@@H]1[C@@]24OO3 [Artemisone 6, artemisone]",–,> 249000,1.1 ± 0.5,1.6 ± 0.4,1.3 ± 0.5,0.8 ± 0.1,"Cure in phase IIa trial (nonsevere malaria): curative at one-third the dose level of artesunate; IC50 (P. falciparum W2 [4]): 1.9 nM; Neurotoxicity [8]: nonneurotoxic; artemisone equivalent concentrations at Tmax by bioassay versus LC/MS-MS, fold higher [9]: about 2.3 fold; Cure of murine cerebral malaria (murine cerebral malaria): completely curative; Cmax ([10]; single oral dose 3 mg/kg): 35 ng/mL; elimination half-life ([10]; single oral dose 3 mg/kg): 10.8 min; Cmax ([10]; single oral dose 10 mg/kg): 230 ng/mL; elimination half-life ([10]; single oral dose 10 mg/kg): 22.2 min; Cmax ([10]; single oral dose 30 mg/kg): 850 ng/mL; elimination half-life ([10]; single oral dose 30 mg/kg): 32.4 min; Induction of quiescence in W2 ring-stage parasites (W2 ring-stage parasites): induce quiescence; IC50 [7]: 2.4 nM"
C[C@H]1[C@H](N2CCN(C(=O)Nc3ccc(F)cc3)CC2)O[C@@H]2O[C@@]3(C)CC[C@H]4[C@H](C)CC[C@@H]1[C@@]24OO3 [Arylurea 10],–,204000,–,1.16 ± 0.17,–,–,–
C[C@H]1[C@H](N2C=CS(=O)(=O)CC2)O[C@@H]2O[C@@]3(C)CC[C@H]4[C@H](C)CC[C@@H]1[C@@]24OO3 [M1 12],–,–,5 ± 0.6,–,6.6 ± 0.4,2.6 ± 0.8,Induction of quiescence in W2 ring-stage parasites (W2 ring-stage parasites): induce quiescence
"C[C@H]1[C@H](N2CCSCC2)O[C@@H]2O[C@@]3(C)CC[C@H]4[C@H](C)CC[C@@H]1[C@@]24OO3 [Artemiside 5, artemiside]",–,> 271000,–,1.75 ± 0.27,–,–,–
"CO[C@H]1O[C@@H]2O[C@@]3(C)CC[C@H]4[C@H](C)CC[C@@H]([C@H]1C)[C@@]24OO3 [Artemether 3, artemether]",6.7 ± 0.6,–,–,–,–,–,–
C[C@H]1[C@H](NS(N)(=O)=O)O[C@@H]2O[C@@]3(C)CC[C@H]4[C@H](C)CC[C@@H]1[C@@]24OO3 [Sulfamide 7],–,56000 ± 4600,–,2.04 ± 0.11,–,–,–
